Where “and” joins values, the source holds several entries; their conditions need not be identical. Identical values can stand only once.
Key:
MN9D cells [1] = test: Cytotoxicity, LDH release, MPP+-treated MN9D cells; type: cell-based, mouse
Method: Cells were transfected with Nurr1 subcloned into pcDNA3.1 vector[23] for Nurr1 overexpression (OE). […] Nurr1 OE or KD by transfection was analyzed by Western blot.
Cellular oxidative stress was detected using the DCFDA Cellular ROS Assay Kit (Abcam) according to the manufacturer’s protocol. Briefly, cells seeded in black clear bottom 96 well plate were stained with DCFDA solution (20 µM) for 45 min at 37 °C. […] Cytotoxicity was determined by measuring lactate dehydrogenase (LDH) release into the culture medium using a LDH cytotoxicity detection kit (Roche)[33]. Absorbance was measured at 490 nm with a microplate reader and cytotoxicity was calculated as a percentage (%) relative to 1% TritonX-100 control. Cell viability was determined using 3-(4,5-dimethylthiazol-2-yl)-2,5-diphenyltetrazolium bromide (MTT) as previously described. Briefly, cells were incubated with 5 mg/ml of MTT (Sigma-Aldrich) solution for 3.5 h at 37 °C. MTT formazan crystals were dissolved in 10 times the volume of MTT solvent (4 mM HCl and 0.1% Nonidet P-40 in isopropanol) and the absorbance from the generated blue formazan was measured at 570 nm after 15 min incubation at room temperature. Cell viability was calculated as a percentage (%) of MTT reduction relative to vehicle control.

[2] = test system: AAV-αSyn-induced male mice; test: pS129 αSyn+ cells in SNpc, AAV-αSyn-induced mice; type: in vivo, mouse
Text: (§1) Adeno-associated viruses (AAVs) expressing GFP only or αSyn (wild-type or A53T) were kindly provided by Dr. Yoon Seong Kim from the University of Central Florida. Recombinant AAV vectors were produced using modified pAAV-IRES-hrGFP (Agilent) to express wild-type and mutant human αSyn under control of the CMV promoter. Viral particles (AAV2) were produced at the University of Iowa Viral Vector Core according to standard operating procedures (https://medicine.uiowa.edu/vectorcore/). […] AAV vectors were delivered into the substantia nigra unilaterally by stereotaxic surgery.
Images were acquired using a KEYENCE microscope and quantified as the number or optical density of immunoreactive cells using ImageJ software.
The numbers of TH^+ DA neurons, NeuN^+ neurons, pS129 αSyn^+ cells in the SN and Iba-1^+ microglia in the SN and striatum were stereologically counted in six coronal sections (30 µm thickness) taken every 6th section (180 µm intervals) for each brain. The boundaries of the SN and striatum were delimited at low magnification (4X) to estimate each total area. Immunoreactive cells were counted with images taken at high magnification (×40) by a single blinded investigator. The group mean of the total number of immunoreactive cells from each brain was transformed as percentage of the number in the control group (%). For AAV-αSyn-induced mice, the group mean of the total number of cells in the ipsilateral side was transformed as a percentage of that observed in the contralateral side.

MN9D cells [3] = test: Cell viability, MTT reduction, MPP+-treated MN9D cells; type: cell-based, mouse
Method: Cell viability was determined using 3-(4,5-dimethylthiazol-2-yl)-2,5-diphenyltetrazolium bromide (MTT) as previously described[60]. Briefly, cells were incubated with 5 mg/ml of MTT (Sigma-Aldrich) solution for 3.5 h at 37 °C. MTT formazan crystals were dissolved in 10 times the volume of MTT solvent (4 mM HCl and 0.1% Nonidet P-40 in isopropanol) and the absorbance from the generated blue formazan was measured at 570 nm after 15 min incubation at room temperature. Cell viability was calculated as a percentage (%) of MTT reduction relative to vehicle control.

[4] = test system: AAV-αSyn-induced male mice; test: Olfactory discrimination test, AAV-αSyn-induced PD model mice; type: in vivo, mouse
Text: as §1
The olfactory discrimination test was designed based on Prediger et al.. Briefly, mice were placed in a chamber (40 (w) × 20 (d) × 20 (h) cm) segmented with two identical compartments containing fresh sawdust (non-familiar odor) on one side and unchanged sawdust (familiar odor; maintained for 3 days before the test) on the other side. Mice could choose between one or another area by freely passing through an open door, for 5 min. Mice movements were monitored with EthoVision XT version 7.0 (Noldus) and time (s) and distance (cm) traveled in each compartment were recorded and analyzed.

Iba-1+ microglia = test: Primary rat VM neuron-glia co-culture, Iba-1+ microglia (ICC); type: cell-based; conditions: for Iba-1+ cells (% of control): Fig. 2g
Method: Primary rat VM neuron-glia co-culture was prepared from E14 rat embryos (Fisher 344; Charles River)[33]. […] After blocking with 10% normal donkey serum (NDS) and 0.1% Triton X-100 solution for 1 h at room temperature, cells were incubated with primary antibodies against TH (1:1,000; Pel Freez, P40401) and Iba-1 (1:500; Abcam, ab5076) in 1% NDS and 0.1% Triton X-100 solution for overnight at 4 °C. Alexa Fluor 568- or Alexa Fluor 488-conjugated anti-rabbit or anti-goat secondary antibodies (1:500; Invitrogen) were incubated following the primary antibody incubation, and then cover glasses were mounted using FluoShield^TM mounting media (Sigma-Aldrich). Fluorescence images were taken using a KEYENCE microscope (BZ-X800; KEYENCE).

N27-A cells = test: Cellular oxidative stress, DCFDA ROS assay, N27-A cells; type: cell-based, rat; conditions: for ROS intensity (fold of control): Fig. S1i, with MPP+, replicates
Nurr1-LBD = target: T1, Nurr1-LBD (Mus musculus, UniProt Q06219); test: Luciferase reporter assay, Nurr1-LBD, MN9D cells; type: cell-based
T1 construct: transfected with pCMV-fNurr1, pGAL-Nurr1(LBD), pGAL-Nor1(LBD) or pGAL-Nur77(LBD) and reporter construct; expressed in transfected cells; host or cells: SK-N-BE(2)C (human neuroblastoma), N27-A (rat dopaminergic), MN9D (murine dopaminergic)
T1 sequence (Q06219 360-595 limits assumed): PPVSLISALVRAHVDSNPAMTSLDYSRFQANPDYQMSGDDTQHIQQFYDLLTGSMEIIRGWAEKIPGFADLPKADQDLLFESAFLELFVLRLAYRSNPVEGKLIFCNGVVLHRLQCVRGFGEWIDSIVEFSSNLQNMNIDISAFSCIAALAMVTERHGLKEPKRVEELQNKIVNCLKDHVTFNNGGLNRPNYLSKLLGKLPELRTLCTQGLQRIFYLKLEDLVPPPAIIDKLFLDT
Text: Nurr1 transactivity was normalized to β-galactosidase activity.

## CCN1CCN(c2cc(N3CCN(CC)CC3)nc(NCCNc3ccnc4cc(Cl)ccc34)n2)CC1 [4A7C-301, N^1-(4,6-bis(4-ethylpiperazin-1-yl)pyrimidin-2-yl)-N^2-(7-chloroquinolin-4-yl)ethane-1,2-diamine]
MN9D cells [1]; Fig. S1g, with MPP+, conc. 0.1 µM, replicates
  LDH release (%): 41.8716% and 42.3575% and 42.6815%
MN9D cells [1]; Fig. S1g, with MPP+, conc. 0.5 µM, replicates
  LDH release (%): 39.0371% and 39.604% and 39.28%
MN9D cells [1]; Fig. S1g, with MPP+, conc. 1 µM, replicates
  LDH release (%): 37.6198% and 37.0529% and 37.2958%
MN9D cells [1]; Fig. S1g, with MPP+, conc. 5 µM, replicates
  LDH release (%): 37.2149% and 37.0124% and 37.6198%
MN9D cells [1]; Fig. S1g, with MPP+, conc. 10 µM, replicates
  LDH release (%): 36.486% and 37.8628% and 37.3363%
MN9D cells [1]; Fig. S3f, MPP+, Control, CQ 100 µM, 4A7C-301 1 µM
  LDH release (%): 38.8915% and 36.4082% and 36.6047% and 41.8443%
MN9D cells [1]; Fig. S3f, MPP+, Nurr1 KD, CQ 100 µM, 4A7C-301 1 µM
  LDH release (%): 55.7866% and 55.7395% and 56.0212% and 56.0866%
MN9D cells [1]; Fig. S3f, MPP+, Nurr1 OE, CQ 100 µM, 4A7C-301 1 µM
  LDH release (%): 24.7388% and 23.725% and 24.6956% and 22.8802%
MN9D cells [1]; Fig. S3d, with MPP+, 0.1 µM
  LDH release (%): 43.0575% and 41.9759% and 41.8986%
MN9D cells [1]; Fig. S3d, with MPP+, 0.5 µM
  LDH release (%): 40.7398% and 41.2806% and 41.0489%
MN9D cells [1]; Fig. S3d, with MPP+, 1 µM
  LDH release (%): 39.0016% and 38.0746% and 37.5724%
MN9D cells [1]; Fig. S3d, with MPP+, 5 µM
  LDH release (%): 38.2677% and 37.7656% and 37.302%
MN9D cells [1]; Fig. S3d, with MPP+, 10 µM
  LDH release (%): 35.5638% and 36.4136% and 37.4179%
MN9D cells [1]; MN9D cells, MPP+-induced cytotoxicity
  concentration of maximal efficiency, times lower than CQ: ~ 20 times
[2]; αSynA53T-mice
  phosphorylated αSyn (αSynS129) in SN (in words): significantly reduced
[2]; αSynWT-mice
  phosphorylated αSyn (αSynS129) in SN (in words): significantly diminished
MN9D cells [3]; Fig. S1f, with MPP+, conc. 0.1 µM, replicates
  MTT reduction (%): 55.1664% and 54.641% and 56.7426%
MN9D cells [3]; Fig. S1f, with MPP+, conc. 0.5 µM, replicates
  MTT reduction (%): 58.8441% and 58.3187% and 60.4203%
MN9D cells [3]; Fig. S1f, with MPP+, conc. 1 µM, replicates
  MTT reduction (%): 62.5219% (2×) and 61.4711%
MN9D cells [3]; Fig. S1f, with MPP+, conc. 5 µM, replicates
  MTT reduction (%): 60.9457% and 62.5219% and 63.0473%
MN9D cells [3]; Fig. S1f, with MPP+, conc. 10 µM, replicates
  MTT reduction (%): 61.9965% and 61.4711% and 63.0473%
MN9D cells [3]; Fig. S3c, with MPP+, 0.1 µM
  MTT reduction (%): 54.8913% and 57.0652% and 55.4348%
MN9D cells [3]; Fig. S3c, with MPP+, 0.5 µM
  MTT reduction (%): 59.2391% and 59.7826% and 60.3261%
MN9D cells [3]; Fig. S3c, with MPP+, 1 µM
  MTT reduction (%): 63.0435% and 64.1304% and 62.5%
MN9D cells [3]; Fig. S3c, with MPP+, 5 µM
  MTT reduction (%): 63.587% and 61.9565% and 64.6739%
MN9D cells [3]; Fig. S3c, with MPP+, 10 µM
  MTT reduction (%): 63.587% and 61.9565%
MN9D cells [3]; Fig. S3e, MPP+, Control, CQ 100 µM, 4A7C-301 1 µM
  MTT reduction (%): 68.2632% and 62.1053% and 68.2105% and 63.0526%
MN9D cells [3]; Fig. S3e, MPP+, Nurr1 KD, CQ 100 µM, 4A7C-301 1 µM
  MTT reduction (%): 31.8421% and 30.5263% and 31.5789% and 29.7368%
MN9D cells [3]; Fig. S3e, MPP+, Nurr1 OE, CQ 100 µM, 4A7C-301 1 µM
  MTT reduction (%): 85.4211% and 91.8947% and 89.4737% and 88.2632%
[4]; αSynA53T-mice
  olfactory dysfunction (in words): significantly reversed
[4]; αSynWT-mice, 6 and 8 weeks after surgery
  olfactory dysfunction (in words): rescued olfactory dysfunction
Iba-1+ microglia; 4A7C-301 only, 50 nM, 0.05 µM
  Iba-1+ cells (% of control): 77.52 % of control and 86.67 % of control and 96.15 % of control
Iba-1+ microglia; 4A7C-301 only, 500 nM, 0.5 µM
  Iba-1+ cells (% of control): 69.77 % of control and 67.62 % of control and 86.92 % of control
Iba-1+ microglia; + LPS, 5 nM, 0.005 µM
  Iba-1+ cells (% of control): 240.31 % of control and 188.57 % of control and 210 % of control
Iba-1+ microglia; + LPS, 50 nM, 0.05 µM
  Iba-1+ cells (% of control): 160.47 % of control and 128.57 % of control and 139.23 % of control
Iba-1+ microglia; + LPS, 500 nM, 0.5 µM
  Iba-1+ cells (% of control): 102.4 % of control and 80.95 % of control and 100.31 % of control
Iba-1+ microglia; + LPS, 1000 nM, 1 µM
  Iba-1+ cells (% of control): 86.82 % of control and 87.62 % of control and 103.69 % of control
Iba-1+ microglia; + MPP+, 5 nM, 0.005 µM
  Iba-1+ cells (% of control): 114.73 % of control and 125.71 % of control and 144.62 % of control
Iba-1+ microglia; + MPP+, 50 nM, 0.05 µM
  Iba-1+ cells (% of control): 96.12 % of control and 105.71 % of control and 78.46 % of control
Iba-1+ microglia; + MPP+, 500 nM, 0.5 µM
  Iba-1+ cells (% of control): 64.34 % of control and 63.81 % of control and 42.31 % of control
Iba-1+ microglia; + MPP+, 1000 nM, 1 µM
  Iba-1+ cells (% of control): 42.64 % of control and 72.38 % of control and 48.46 % of control
Iba-1+ microglia; against LPS
  concentration of optimal suppression of microglial activation: 500 nM
  concentration of optimal suppression, times lower than CQ: 40 times
N27-A cells; CQ 100 µM, 4A7C-301 1 µM
  MPP+-induced ROS levels (in words): significantly reduced
N27-A cells; Control cells
  ROS intensity (fold of control): 1.457 fold of control and 1.389 fold of control and 1.394 fold of control
N27-A cells; Nurr1 KD cells
  ROS intensity (fold of control): 2.059 fold of control and 2.042 fold of control and 2.017 fold of control
N27-A cells; Nurr1 OE cells
  ROS intensity (fold of control): 0.87 fold of control and 0.894 fold of control and 0.877 fold of control
Nurr1-LBD; Fig. S3a, 0.001 µM
  Luciferase activity (fold): 1.103 fold and 1.1109 fold and 1.11 fold
Nurr1-LBD; Fig. S3a, 0.01 µM
  Luciferase activity (fold): 2.094 fold and 2.1057 fold and 1.929 fold
Nurr1-LBD; Fig. S3a, 0.1 µM
  Luciferase activity (fold): 4.339 fold and 4.261 fold and 4.17 fold
Nurr1-LBD; Fig. S3a, 1 µM
  Luciferase activity (fold): 7.077 fold and 6.781 fold and 6.645 fold
Nurr1-LBD; Fig. S3a, 10 µM
  Luciferase activity (fold): 6.849 fold and 6.689 fold and 7.128 fold
Nurr1-LBD; Fig. S1d, conc. 1 µM, replicates
  Luciferase activity (fold): 6.4567 fold and 6.799 fold and 6.563 fold
Nurr1-LBD; Fig. S1d, conc. 10 µM, replicates
  Luciferase activity (fold): 6.943 fold and 6.5332 fold and 6.663 fold
Nurr1-LBD; Fig. S1d, conc. 10-1 µM, replicates
  Luciferase activity (fold): 3.61 fold and 3.7661 fold and 3.609 fold
Nurr1-LBD; Fig. S1d, conc. 10-2 µM, replicates
  Luciferase activity (fold): 1.993 fold and 2.235 fold and 2.074 fold
Nurr1-LBD; Fig. S1d, conc. 10-3 µM, replicates
  Luciferase activity (fold): 1.142 fold and 1.201 fold and 1.251 fold
Nurr1-LBD; MN9D cells, Supplementary Fig. 3a,b
  potency to activate Nurr1 relative to CQ: approximately 50 fold

— paper PMC10354055, “An optimized Nurr1 agonist provides disease-modifying effects in Parkinson’s disease models” (Nature Communications, 2023)
